The record followed here is ChEMBL document CHEMBL3804808, “Discovery of a Novel 2,6-Disubstituted Glucosamine Series of Potent and Selective Hexokinase 2 Inhibitors” (ACS Med Chem Lett, 2016).

A value given as a limit tells only on which side of the number the result lay.

One assay deals with T1, Hexokinase-1 (Homo sapiens, UniProt P19367).
T1 sequence (P19367 whole entry): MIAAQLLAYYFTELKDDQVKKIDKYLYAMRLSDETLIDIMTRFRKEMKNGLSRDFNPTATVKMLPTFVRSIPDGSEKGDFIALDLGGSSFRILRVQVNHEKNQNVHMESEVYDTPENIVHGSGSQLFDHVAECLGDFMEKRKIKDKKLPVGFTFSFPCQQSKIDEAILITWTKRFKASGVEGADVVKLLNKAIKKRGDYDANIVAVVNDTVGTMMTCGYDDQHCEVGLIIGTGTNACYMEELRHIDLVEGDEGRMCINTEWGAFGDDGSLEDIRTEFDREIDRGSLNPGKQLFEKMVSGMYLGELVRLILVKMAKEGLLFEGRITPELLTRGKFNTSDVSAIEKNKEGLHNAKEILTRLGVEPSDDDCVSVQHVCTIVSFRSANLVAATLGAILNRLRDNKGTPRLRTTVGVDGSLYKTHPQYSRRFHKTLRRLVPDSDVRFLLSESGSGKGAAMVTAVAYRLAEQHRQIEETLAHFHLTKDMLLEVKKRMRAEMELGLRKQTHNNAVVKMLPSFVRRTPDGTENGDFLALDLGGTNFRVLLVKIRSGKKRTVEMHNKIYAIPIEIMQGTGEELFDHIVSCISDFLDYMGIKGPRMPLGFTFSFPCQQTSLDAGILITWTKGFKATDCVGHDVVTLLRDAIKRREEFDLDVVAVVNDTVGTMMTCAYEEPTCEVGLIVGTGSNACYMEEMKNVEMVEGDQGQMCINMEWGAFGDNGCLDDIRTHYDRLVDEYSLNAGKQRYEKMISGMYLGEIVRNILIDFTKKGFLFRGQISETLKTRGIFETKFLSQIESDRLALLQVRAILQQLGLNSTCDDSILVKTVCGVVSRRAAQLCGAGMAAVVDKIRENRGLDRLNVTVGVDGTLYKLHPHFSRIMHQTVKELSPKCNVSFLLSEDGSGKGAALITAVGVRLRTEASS
The experiment in a line: Inhibition of His-tagged human HK1 (11 to 917 residues) expressed in Escherichia coli BL21(DE3) using glucose as substrate after 45 mins by ADP-glo assay in presence of MgATP.

The target of assay [1] is T2, Hexokinase-2 (Homo sapiens, UniProt P52789).
T2 sequence (P52789 whole entry): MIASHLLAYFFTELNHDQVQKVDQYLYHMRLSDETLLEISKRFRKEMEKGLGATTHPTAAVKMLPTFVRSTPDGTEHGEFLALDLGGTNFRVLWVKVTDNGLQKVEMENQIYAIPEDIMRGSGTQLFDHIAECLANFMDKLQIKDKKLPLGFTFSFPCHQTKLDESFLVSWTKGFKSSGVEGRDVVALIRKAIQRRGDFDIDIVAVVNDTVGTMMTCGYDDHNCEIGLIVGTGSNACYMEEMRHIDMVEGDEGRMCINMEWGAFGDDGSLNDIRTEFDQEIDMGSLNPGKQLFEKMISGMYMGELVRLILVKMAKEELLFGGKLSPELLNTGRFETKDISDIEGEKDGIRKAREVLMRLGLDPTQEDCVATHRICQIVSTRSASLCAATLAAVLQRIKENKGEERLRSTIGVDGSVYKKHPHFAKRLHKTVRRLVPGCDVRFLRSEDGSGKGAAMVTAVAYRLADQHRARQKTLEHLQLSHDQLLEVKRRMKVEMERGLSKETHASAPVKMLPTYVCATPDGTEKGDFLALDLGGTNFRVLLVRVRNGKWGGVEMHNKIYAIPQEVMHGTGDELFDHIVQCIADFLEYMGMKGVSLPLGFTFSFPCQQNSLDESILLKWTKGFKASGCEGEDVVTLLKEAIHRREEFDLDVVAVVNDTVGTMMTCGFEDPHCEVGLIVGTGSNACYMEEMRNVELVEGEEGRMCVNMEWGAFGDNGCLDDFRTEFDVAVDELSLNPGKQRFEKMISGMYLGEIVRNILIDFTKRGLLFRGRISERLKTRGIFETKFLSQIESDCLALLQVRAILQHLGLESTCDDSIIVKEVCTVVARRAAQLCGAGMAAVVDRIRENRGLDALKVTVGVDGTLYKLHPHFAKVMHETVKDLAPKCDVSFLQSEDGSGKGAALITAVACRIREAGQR
The experiment in a line: Inhibition of His-tagged human HK2 (17 to 916 residues) expressed in Escherichia coli BL21(DE3) using glucose as substrate after 45 mins by ADP-glo assay in presence of MgATP.

The target in assay [2] is T2, Hexokinase-2. The experiment in a line: Inhibition of HK2 in human UM-UC-3 cells using 2FDG as substrate assessed as suppression of G6P production preincubated for 30 mins followed by substrate treatment for 90 mins by resazurin assay. Type of assay: cell-based, UMUC3.
The target of assay [3] is T2, Hexokinase-2. The experiment in a line: Competitive inhibition of His-tagged human HK2 (17 to 916 residues) expressed in Escherichia coli BL21(DE3) assessed as formation of G6P by continuous G6P dehydrogenase coupled assay in presence of glucose.
The target of a further assay is T3, Hexokinase-4 (Homo sapiens, UniProt P35557).
T3 sequence (P35557 whole entry): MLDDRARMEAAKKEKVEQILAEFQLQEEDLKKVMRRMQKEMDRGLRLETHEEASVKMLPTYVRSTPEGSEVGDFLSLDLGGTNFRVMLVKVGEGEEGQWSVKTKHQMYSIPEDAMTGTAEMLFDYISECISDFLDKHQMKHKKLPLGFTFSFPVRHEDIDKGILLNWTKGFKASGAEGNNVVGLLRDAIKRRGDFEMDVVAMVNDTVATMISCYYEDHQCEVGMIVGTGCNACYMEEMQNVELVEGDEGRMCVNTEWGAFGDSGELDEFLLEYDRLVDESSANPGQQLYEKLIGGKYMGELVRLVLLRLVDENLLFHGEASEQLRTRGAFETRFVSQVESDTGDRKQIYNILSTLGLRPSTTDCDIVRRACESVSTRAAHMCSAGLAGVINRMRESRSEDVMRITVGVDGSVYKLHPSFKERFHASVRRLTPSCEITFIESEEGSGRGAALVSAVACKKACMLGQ
The experiment in a line: Inhibition of HK4 (unknown origin).

For `COc1cc(C(=O)N[C@H]2C(O)O[C@H](CNS(=O)(=O)c3cccc(Cl)c3Cl)[C@@H](O)[C@@H]2O)cc(-c2ccc(C#N)cc2)c1` (stereo not given in full), the IC50 on Hexokinase-1 stood at 7.9 nM; at Hexokinase-2 [1], 25 nM.
Consider `O=[N+]([O-])c1cccc(S(=O)(=O)N[C@H]2C(O)O[C@H](CNS(=O)(=O)c3cccc(Cl)c3Cl)[C@@H](O)[C@@H]2O)c1` (stereo not given in full), for which the figures for the 50% inhibitory concentration (IC50) at Hexokinase-1 and at Hexokinase-2 [1] were 10000 nM and 130 nM, respectively.
For the compound `O=C(C=C1CCC(C(F)(F)F)CC1)N[C@H]1C(O)O[C@H](CO)[C@@H](O)[C@@H]1O` (stereo not given in full), the IC50 turned out to be 160000 nM at Hexokinase-1 and 16000 nM at Hexokinase-2 [1].
Consider `N#Cc1ccc(-c2cc(C(=O)N[C@H]3C(O)O[C@H](CO)[C@@H](O)[C@@H]3O)cc(C(F)(F)F)c2)cc1` (stereo not given in full), for which the 50% inhibitory concentration (IC50) at Hexokinase-1 stood at 40 nM; at Hexokinase-2 [1], 790 nM.
For the compound `O=C(N[C@H]1C(O)O[C@H](CNS(=O)(=O)c2ccccc2Cl)[C@@H](O)[C@@H]1O)c1cccc(-c2ccccc2)c1` (stereo not given in full), the IC50 on Hexokinase-1 turned out to be 16 nM; on Hexokinase-2 [1], 100 nM.
In the case of `Cc1oc(S(=O)(=O)NC[C@H]2OC(O)[C@H](NC(=O)c3cccc(Br)c3)[C@@H](O)[C@@H]2O)cc1C(=O)O` (stereo not given in full), the values for the IC50 at Hexokinase-1 and on Hexokinase-2 [1] were 20 nM and 10 nM, respectively.
As for `O=C(N[C@H]1C(O)O[C@H](CNS(=O)(=O)c2cnccc2Cl)[C@@H](O)[C@@H]1O)c1cccc(-c2ccccc2)c1` (stereo not given in full), the values for the IC50 at Hexokinase-1 and on Hexokinase-2 [1] were 20 nM and 100 nM, respectively.
Turning to `O=S(=O)(N[C@H]1C(O)O[C@H](CNS(=O)(=O)c2cccc(Cl)c2Cl)[C@@H](O)[C@@H]1O)c1ccc(Cl)s1` (stereo not given in full), the half-maximal inhibitory concentration (IC50) on Hexokinase-1 was 63000 nM; at Hexokinase-2 [1] it was 130 nM; at Hexokinase-2 [2], 520 nM.
Turning to `O=C(N[C@H]1C(O)O[C@H](CO)[C@@H](O)[C@@H]1O)c1cccc(-c2ccccc2)c1` (stereo not given in full), the half-maximal inhibitory concentration (IC50) on Hexokinase-1 came to 790 nM; at Hexokinase-2 [1], 3200 nM.
Take `O=C(N[C@H]1C(O)O[C@H](CNS(=O)(=O)c2cccc(Cl)c2)[C@@H](O)[C@@H]1O)c1cccc(-c2ccccc2)c1` (stereo not given in full): the IC50 on Hexokinase-1 was 160 nM; on Hexokinase-2 [1], 320 nM.
As to `O=S(=O)(N[C@H]1C(O)O[C@H](CNS(=O)(=O)c2cccc(Cl)c2Cl)[C@@H](O)[C@@H]1O)c1cccc(-c2ccccc2)c1` (stereo not given in full), the half-inhibitory concentration (IC50) at Hexokinase-1 was 5000 nM; at Hexokinase-2 [1], 25 nM; on Hexokinase-2 [2], 470 nM.
Regarding `O=C(/C=C/c1ccc(Cl)c(Cl)c1)N[C@H]1C(O)O[C@H](CO)[C@@H](O)[C@@H]1O` (stereo not given in full), the IC50 at Hexokinase-1 was determined as 2000 nM; on Hexokinase-2 [1], 6300 nM. In addition, the Ki on Hexokinase-2 [3] amounted to 2900 nM.
As to `O=C(O)c1cccc(S(=O)(=O)NC[C@H]2OC(O)[C@H](NC(=O)c3cccc(-c4ccccc4)c3)[C@@H](O)[C@@H]2O)c1` (stereo not given in full), the results for the half-maximal inhibitory concentration (IC50) on Hexokinase-1 and on Hexokinase-2 [1] were 25 nM and 50 nM, respectively.
For the compound `O=C(/C=C/c1ccc(Cl)c(Cl)c1)N[C@H]1CO[C@H](CO)[C@@H](O)[C@@H]1O`, the IC50 on Hexokinase-1 is more than 200000 nM; on Hexokinase-2 [1] it was more than 400000 nM.
The corresponding values for `O=C(N[C@H]1C(O)O[C@H](CNS(=O)(=O)c2ccccc2)[C@@H](O)[C@@H]1O)c1cccc(-c2ccccc2)c1` (stereo not given in full) are 160 nM and 790 nM.
In the case of `O=C(N[C@H]1C(O)O[C@H](CO)[C@@H](O)[C@@H]1O)c1cc([N+](=O)[O-])cc([N+](=O)[O-])c1` (stereo not given in full), the IC50 on Hexokinase-1 and on Hexokinase-2 [1] was 2000 nM in each case.
For the compound `COC1O[C@H](CO)[C@@H](O)[C@H](O)[C@H]1NC(=O)/C=C/c1ccc(Cl)c(Cl)c1` (stereo not given in full), the IC50 at Hexokinase-1 was more than 200000 nM; on Hexokinase-2 [1], more than 400000 nM.
For `O=C(N[C@H]1C(O)O[C@H](CNS(=O)(=O)c2cccc(Cl)c2Cl)[C@@H](O)[C@@H]1O)c1cccc(-c2ccccc2)c1` (stereo not given in full), the half-inhibitory concentration (IC50) came to 32 nM at Hexokinase-1, 25 nM on Hexokinase-2 [1], 3500 nM against Hexokinase-4 and 200 nM on Hexokinase-2 [2].
For `COC(=O)c1cc(S(=O)(=O)NC[C@H]2OC(O)[C@H](NC(=O)c3cccc(Br)c3)[C@@H](O)[C@@H]2O)oc1C` (stereo not given in full), the IC50 on Hexokinase-1 came to 1600 nM; at Hexokinase-2 [1], 630 nM.
With `N#Cc1ccc(S(=O)(=O)NC[C@H]2OC(O)[C@H](NC(=O)c3cccc(-c4ccccc4)c3)[C@@H](O)[C@@H]2O)cc1` (stereo not given in full), the IC50 was 7.9 nM at Hexokinase-1 and 130 nM at Hexokinase-2 [1].
Consider `O=S(=O)(N[C@H]1C(O)O[C@H](CNS(=O)(=O)c2cccc(Cl)c2Cl)[C@@H](O)[C@@H]1O)c1ccc(Cl)c(Cl)c1` (stereo not given in full), for which the IC50 is more than 20000 nM at Hexokinase-1 and 50 nM on Hexokinase-2 [1].
In the case of `O=S(=O)(N[C@H]1C(O)O[C@H](CNS(=O)(=O)c2cccc(Cl)c2Cl)[C@@H](O)[C@@H]1O)c1cccc(-c2ccc(Cl)cc2)c1` (stereo not given in full), the IC50 stood at 1000 nM at Hexokinase-1 and 7.9 nM on Hexokinase-2 [1].
In the case of `O=C(N[C@H]1C(O)O[C@H](CNS(=O)(=O)c2cccc(Cl)c2Cl)[C@@H](O)[C@@H]1O)c1ccc(Cl)s1` (stereo not given in full), the results for the IC50 on Hexokinase-1 and at Hexokinase-2 [1] were 2000 nM and 40 nM, respectively.
Regarding `O=C(N[C@H]1C(O)O[C@H](CO)[C@@H](O)[C@@H]1O)c1ccc(-c2ccccc2)cc1` (stereo not given in full), the IC50 on Hexokinase-1 worked out at 13000 nM; on Hexokinase-2 [1], 16000 nM.
For `Cc1ccc(S(=O)(=O)NC[C@H]2OC(O)[C@H](NC(=O)/C=C/c3ccc(Cl)c(Cl)c3)[C@@H](O)[C@@H]2O)cc1` (stereo not given in full), the IC50 on Hexokinase-1 and at Hexokinase-2 [1] was 2000 nM throughout.
